Data set [1] deals with SARS-CoV-2 strain BetaCoV/France/IDF0372/2020. The experiment in a line: microbe, parasite or virus in culture. The following applies: Severe acute respiratory syndrome coronavirus 2, U2OS.
The nature of another data set: in vitro. The following applies: human, CC50, U2-OS ACE2 GFP cells.
Data set [2] deals with SARS-CoV-2. The following applies: A549 + ACE2 cells, pretreatment; cited from earlier work.
In data set [3] the test system is SARS-CoV-2. The following applies: SARS-CoV-2-infected mice; cited from earlier work.
The subject of a further data set is SARS-CoV-2 PL^pro. The following applies: in vitro SARS-CoV-2 PL^pro; cited from earlier work.
Data set [4] has as its system SARS-CoV-2. The following applies: cited from earlier work.

Read-outs that look alike come from different tables or passages of the source.

The values that follow come from paper PMC10620940 (ACS Omega, 2023).

The term IC50 denotes the concentration that inhibits the measured activity by half. By CC50 is commonly meant the concentration that lowers cell viability or growth by half. High values mean lower toxicity to the cells, low ones greater toxicity to the cells.

Consider `COc1ccc2nc3cc(Cl)ccc3c(Nc3cc(CN4CCCC4)c(O)c(CN4CCCC4)c3)c2n1` [7g, pyronaridine], for which the IC50 is 420 nM in data set [1], 230 nM in the data set on SARS-CoV-2 [2] and 1800 nM in the data set with SARS-CoV-2 PL^pro. This molecule showed a CC50 in the data set “in vitro” of 4.7 µM. The “viral load in the lungs” value in the data set with SARS-CoV-2 [3] is recorded as “reduces viral load”.
As for `CCN(CC)CCCC(C)Nc1c2ccc(Cl)cc2nc2ccc(OC)cc12` (centres unmarked) [quinacrine], the IC50 in data set [1] is 2570 nM; with SARS-CoV-2 [2], 190 nM.
With `CCC(CC)COC(=O)[C@H](C)N[P@](=O)(OC[C@H]1O[C@@](C#N)(c2ccc3c(N)ncnn23)[C@H](O)[C@@H]1O)Oc1ccccc1` [remdesivir], the IC50 in the data set on SARS-CoV-2 [4] is 20 to 50 nM.
